The values that follow come from patent US20180022780A1, “STABILIZATION ADRENOMEDULLIN DERIVATIVES AND USE THEREOF” (priority 2014, published 2018).

Series [1] concerns mean arterial blood pressure. Particulars: doses of ≦300 μg/kg body weight; reference WO 2013/064508 A1; cited from earlier work.
Series [2] concerns guinea pig atria. Particulars: cited from earlier work.
Series [3] has as its system receptor in rat spleen membranes. Particulars: cited from earlier work.
Series [4] in a line: Stability in human blood plasma (TAM-labeled analogues). In kind it is in vitro ADME. As to conditions: 10E-5 M, 37° C., two phase decay, N-terminally TAM-labeled analogues, read-out: HalfLife (Slow) (converted). An excerpt: FIG. 3: Stability of peptides in plasma calculated with GraphPad Prism 5 (GraphPad Software) using two phase decay analysis for the determination of half-life (slow) (Test 1e). N-terminally 6-carboxytetramethylrhodamine-(TAM)-labeled analogues of Control: TAM[G^14]ADM(14-52); Example 18: TAM[K^14(PAM), (Dpr^16, E^21)lac]ADM(14-52); and Example 27: TAM[K^14(PAM), (Dpr^16, E^21)lac, Nα-Me-K^46]ADM(14-52).
The stability of the peptides was investigated using N-terminally 6-carboxytetramethylrhodamine-(TAM)-labeled analogues.
Fluorescently labeled ADM analogues were prepared by using solid phase peptide synthesis (SPPS) as described before (general method for peptide synthesis). Manual coupling of 6-carboxytetramethylrhodamine (TAM) to the N-terminus of the peptides was carried out with a 3-fold molar excess of the fluorescence dye, 2-(1H-benzotriazol-1-yl)-1,1,3,3-tetramethyluronium hexafluorophosphate (HBTU) and N,N-Diisopropylethylamine (DIPEA) in DMF under constant shaking for 24 h the resin as described recently (Bohme D., Beck-Sickinger A. G. ChemMedChem 2015, 10: 804-14). The identity of the peptides was confirmed by mass spectrometry with an MALDI-MS (UltraflexIII, Bruker) and an ESI-MS (HCT, Bruker). The observed masses were in correspondence to the calculated masses.
The peptides were dissolved in 1.5 ml of human blood plasma to a concentration of 10E-5 M and incubated at 37° C. under constant shaking. […] The samples were analyzed by RP-HPLC using a Varian VariTide RPC column (particle size 6 μm; pore size 200 Å; 250×4.6 mm) with linear gradients of 0.1% TFA in water and 0.08% TFA in ACN; fluorescence emission was detected at λ=573 nm. The percentage of intact peptide was determined by peak integration. […] The stability of the peptides was calculated with GraphPad Prism 5 (GraphPad Software) using a two phase exponential decay function for the determination of slow-decay phase half-lives (ln(2)/Kslow; Kslow: rate constant of slow part of exponential decay) (Table 3 and FIG. 3).

For series [5] the following is noted: only at −80° C. under argon atmosphere; cited from earlier work.
Series [6] deals with T1, human adrenomedullin-receptor (Homo sapiens, UniProt O60895+Q16602).
T1 construct: expressed in transfected cells; host or cells: CHO (Chinese hamster ovary) recombinant reporter cell line with aequorin
Kind of series: Tests on a recombinant adrenomedullin-receptor reporter cell (CHO, aequorin luminescence). It is filed as cell-based. Particulars: Table 1, CHO cell line carrying the human adrenomedullin-receptor.

Series [7] concerns the target T2, CLR fused to EYFP and RAMP2 fused to ECFP (Homo sapiens, UniProt O60895+Q16602).
T2 construct: EYFP; ECFP; expressed in transfected cells; host or cells: HEK-293 cells, transient co-transfection
The series is described as follows: cAMP assay (CRE luciferase reporter, HEK-293 cells transiently co-transfected with CLR and RAMP2). It is filed as cell-based. As to conditions: Table 2, cAMP assay; HEK-293, CLR/RAMP2, CRE luciferase, 3 h stimulation, normalized to [G^14]ADM(14-52). A digest of the protocol:
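HEK-293 cells transiently co-transfected with CLR-EYFP, RAMP2-ECFP and a CRE-luc2P luciferase reporter were stimulated with ligands (eight concentrations, triplicate) for 3 h at 37 °C. Luminescence was corrected to 5 µM forskolin, normalized to [G^14]ADM(14-52) standard, and fitted by non-linear regression to dose-response curves.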

Bridge positions count the residues as written; N and C are the ends. Square brackets hold non-standard residues; d marks the D form. Ends that are not written are not given here. Peptide text beside a SMILES is read from it. * marks the point of attachment. X1 = CN(C)c1ccc2c(c1)Oc1cc(N(C)C)ccc1C21OC(=O)c2ccc(C(=O)*)cc21; Palmitoyl = CCCCCCCCCCCCCCCC(=O)*; NMeK = CN[C@@H](CCCCN)C(=O)O; Orn = NCCC[C@H](N)C(=O)O; Dap = NC[C@H](N)C(=O)O Where only a bound is given, the exact number is not on record here.

T2 sequence (Q16602 23-461): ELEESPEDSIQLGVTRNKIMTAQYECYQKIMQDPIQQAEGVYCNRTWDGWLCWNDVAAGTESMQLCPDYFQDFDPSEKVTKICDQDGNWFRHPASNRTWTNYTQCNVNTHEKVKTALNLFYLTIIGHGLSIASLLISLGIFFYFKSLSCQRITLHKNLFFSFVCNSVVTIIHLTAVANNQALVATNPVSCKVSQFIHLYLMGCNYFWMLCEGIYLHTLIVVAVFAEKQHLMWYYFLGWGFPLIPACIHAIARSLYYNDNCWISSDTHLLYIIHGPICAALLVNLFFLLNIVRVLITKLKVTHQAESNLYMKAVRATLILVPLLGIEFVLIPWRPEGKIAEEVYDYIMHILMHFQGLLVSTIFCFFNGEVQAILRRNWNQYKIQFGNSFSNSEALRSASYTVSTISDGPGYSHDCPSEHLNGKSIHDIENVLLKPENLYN
T2 sequence (O60895 43-175): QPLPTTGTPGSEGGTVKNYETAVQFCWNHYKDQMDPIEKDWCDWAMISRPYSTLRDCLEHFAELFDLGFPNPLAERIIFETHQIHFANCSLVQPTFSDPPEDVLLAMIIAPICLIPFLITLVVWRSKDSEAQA
T1 sequence (Q16602 23-461): as the sequence (Q16602 23-461) above
T1 sequence (O60895 43-175): as the sequence (O60895 43-175) above

In the case of adrenomedullin (human) [wt ADM], in series [1], the “duration of blood pressure reduction” value is on record as at most 4 h. On to cyclo [Asp^2, Lys^7]-CGRP, for which, in series [2], the “biological activity (agonist function)” value is listed as “loss of agonist function”. Besides, the “decrease in affinity to the receptor” value in series [3] is 50%.

Regarding `CCCCCCCCCCCCCCCC(=O)NCCCC[C@H](NC(=O)c1ccc2c(c1)C1(OC2=O)c2ccc(N(C)C)cc2Oc2cc(N(C)C)ccc21)C(=O)NCC(=O)N[C@H]1CNC(=O)CC[C@@H](C(=O)N[C@H](C(=O)N[C@H](C(=O)N[C@@H](CCC(N)=O)C(=O)N[C@@H](CCCCN)C(=O)N[C@@H](CC(C)C)C(=O)N[C@@H](C)C(=O)N[C@@H](Cc2c[nH]cn2)C(=O)N[C@@H](CCC(N)=O)C(=O)N[C@H](C(=O)N[C@@H](Cc2ccc(O)cc2)C(=O)N[C@@H](CCC(N)=O)C(=O)N[C@@H](Cc2ccccc2)C(=O)N[C@H](C(=O)N[C@@H](CC(=O)O)C(=O)N[C@@H](CCCCN)C(=O)N[C@@H](CC(=O)O)C(=O)N[C@@H](CCCCN)C(=O)N[C@@H](CC(=O)O)C(=O)N[C@@H](CC(N)=O)C(=O)N[C@H](C(=O)N[C@@H](C)C(=O)N2CCC[C@H]2C(=O)N[C@@H](CCCNC(=N)N)C(=O)N[C@@H](CO)C(=O)N(C)[C@@H](CCCCN)C(=O)N[C@H](C(=O)N[C@@H](CO)C(=O)N2CCC[C@H]2C(=O)N[C@@H](CCC(N)=O)C(=O)NCC(=O)N[C@@H](Cc2ccc(O)cc2)C(N)=O)[C@@H](C)CC)C(C)C)[C@@H](C)O)[C@@H](C)CC)C(C)C)[C@@H](C)O)NC(=O)[C@H]([C@@H](C)O)NC(=O)CNC(=O)[C@H](Cc2ccccc2)NC(=O)[C@H](CCCNC(=N)N)NC1=O` [TAM-27, TAM[K^14(PAM), (Dpr^16, E^21)lac, Nα-Me-K^46]ADM(14-52)] (X1-K(Palmitoyl)G[Dap]RFGTETVQKLAHQIYQFTDKDKDNVAPRS[NMeK]ISPQGY-NH2; lactam 3-8), the half-life at 0.0001 M in series [4] is over 96 h. On the same count and under the same terms, next, `CC[C@H](C)[C@H](NC(=O)[C@H](CCC(N)=O)NC(=O)[C@H](Cc1c[nH]cn1)NC(=O)[C@H](C)NC(=O)[C@H](CC(C)C)NC(=O)[C@H](CCCCN)NC(=O)[C@H](CCC(N)=O)NC(=O)[C@@H](NC(=O)[C@@H](NC(=O)[C@@H]1CSSC[C@H](NC(=O)CNC(=O)CNC(=O)c2ccc3c(c2)C2(OC3=O)c3ccc(N(C)C)cc3Oc3cc(N(C)C)ccc32)C(=O)N[C@@H](CCCNC(=N)N)C(=O)N[C@@H](Cc2ccccc2)C(=O)NCC(=O)N[C@@H]([C@@H](C)O)C(=O)N1)[C@@H](C)O)C(C)C)C(=O)N[C@@H](Cc1ccc(O)cc1)C(=O)N[C@@H](CCC(N)=O)C(=O)N[C@@H](Cc1ccccc1)C(=O)N[C@H](C(=O)N[C@@H](CC(=O)O)C(=O)N[C@@H](CCCCN)C(=O)N[C@@H](CC(=O)O)C(=O)N[C@@H](CCCCN)C(=O)N[C@@H](CC(=O)O)C(=O)N[C@@H](CC(N)=O)C(=O)N[C@H](C(=O)N[C@@H](C)C(=O)N1CCC[C@H]1C(=O)N[C@@H](CCCNC(=N)N)C(=O)N[C@@H](CO)C(=O)N[C@@H](CCCCN)C(=O)N[C@H](C(=O)N[C@@H](CO)C(=O)N1CCC[C@H]1C(=O)N[C@@H](CCC(N)=O)C(=O)NCC(=O)N[C@@H](Cc1ccc(O)cc1)C(N)=O)[C@@H](C)CC)C(C)C)[C@@H](C)O` [TAM-control, TAM[G^14]ADM(14-52), reference compound]: 9 h. As for “amylin-(1-8) (KCNTATCA; ends and bridges not checked; cysteine pairing not given here; UniProt P10997 34-41, looked up, fragment) [native octapeptide amylin (1-8), literature]”, the “time stable on storage” value in series [5] is on record as 6 month. Consider `CCCCCCCCCCCCCCCC(=O)NCCCC[C@H](NC(=O)c1ccc2c(c1)C1(OC2=O)c2ccc(N(C)C)cc2Oc2cc(N(C)C)ccc21)C(=O)NCC(=O)N[C@H]1CNC(=O)CC[C@@H](C(=O)N[C@H](C(=O)N[C@H](C(=O)N[C@@H](CCC(N)=O)C(=O)N[C@@H](CCCCN)C(=O)N[C@@H](CC(C)C)C(=O)N[C@@H](C)C(=O)N[C@@H](Cc2c[nH]cn2)C(=O)N[C@@H](CCC(N)=O)C(=O)N[C@H](C(=O)N[C@@H](Cc2ccc(O)cc2)C(=O)N[C@@H](CCC(N)=O)C(=O)N[C@@H](Cc2ccccc2)C(=O)N[C@H](C(=O)N[C@@H](CC(=O)O)C(=O)N[C@@H](CCCCN)C(=O)N[C@@H](CC(=O)O)C(=O)N[C@@H](CCCCN)C(=O)N[C@@H](CC(=O)O)C(=O)N[C@@H](CC(N)=O)C(=O)N[C@H](C(=O)N[C@@H](C)C(=O)N2CCC[C@H]2C(=O)N[C@@H](CCCNC(=N)N)C(=O)N[C@@H](CO)C(=O)N[C@@H](CCCCN)C(=O)N[C@H](C(=O)N[C@@H](CO)C(=O)N2CCC[C@H]2C(=O)N[C@@H](CCC(N)=O)C(=O)NCC(=O)N[C@@H](Cc2ccc(O)cc2)C(N)=O)[C@@H](C)CC)C(C)C)[C@@H](C)O)[C@@H](C)CC)C(C)C)[C@@H](C)O)NC(=O)[C@H]([C@@H](C)O)NC(=O)CNC(=O)[C@H](Cc2ccccc2)NC(=O)[C@H](CCCNC(=N)N)NC1=O` [TAM-18, TAM[K^14(PAM), (Dpr^16, E^21)lac]ADM(14-52)] (X1-K(Palmitoyl)G[Dap]RFGTETVQKLAHQIYQFTDKDKDNVAPRSKISPQGY-NH2; lactam 3-8), for which the half-life at 0.0001 M in series [4] is over 96 h. The EC50 is the concentration needed to bring the measured effect to its halfway point. For `CC[C@H](C)[C@H](NC(=O)[C@H](CCC(N)=O)NC(=O)[C@H](Cc1c[nH]cn1)NC(=O)[C@H](C)NC(=O)[C@H](CC(C)C)NC(=O)[C@H](CCCCN)NC(=O)[C@H](CCC(N)=O)NC(=O)[C@@H](NC(=O)[C@@H](NC(=O)[C@@H]1CCCNC(=O)CC[C@H](NC(=O)CNC(=O)CN)C(=O)N[C@@H](CCCNC(=N)N)C(=O)N[C@@H](Cc2ccccc2)C(=O)NCC(=O)N[C@@H]([C@@H](C)O)C(=O)N1)[C@@H](C)O)C(C)C)C(=O)N[C@@H](Cc1ccc(O)cc1)C(=O)N[C@@H](CCC(N)=O)C(=O)N[C@@H](Cc1ccccc1)C(=O)N[C@H](C(=O)N[C@@H](CC(=O)O)C(=O)N[C@@H](CCCCN)C(=O)N[C@@H](CC(=O)O)C(=O)N[C@@H](CCCCN)C(=O)N[C@@H](CC(=O)O)C(=O)N[C@@H](CC(N)=O)C(=O)N[C@H](C(=O)N[C@@H](C)C(=O)N1CCC[C@H]1C(=O)N[C@@H](CCCNC(=N)N)C(=O)N[C@@H](CO)C(=O)N[C@@H](CCCCN)C(=O)N[C@H](C(=O)N[C@@H](CO)C(=O)N1CCC[C@H]1C(=O)N[C@@H](CCC(N)=O)C(=O)NCC(=O)N[C@@H](Cc1ccc(O)cc1)C(N)=O)[C@@H](C)CC)C(C)C)[C@@H](C)O` [Example 19, ((2S,5S,11S,14S,22S)-22-(2-(2-aminoacetamido)acetamido)-5-benzyl-2-(3-guanidinopropyl)-11-((R)-1-hydroxyethyl)-3,6,9,12,19,23-hexaoxo-1,4,7,10,13,18-hexaazacyclotricosane-14-carbonyl)-L-threonyl-ADM(22-52)] (H-GGERFGT[Orn]TVQKLAHQIYQFTDKDKDNVAPRSKISPQGY-NH2; lactam 3-8), the EC50 in series [6] was over 1000 nM; in series [7], 21 nM.
